Results on 18 compounds are retold here after patent US8513232B2, “Substituted spirocyclic piperidine derivatives as histamine-3 (H3) receptor ligands” (Cephalon, Inc., priority 2008, dated 2013).

Each structure is given as a SMILES string. A value given as a limit tells only on which side of the number the result lay.

As usually defined, the Ki is the dissociation constant of the complex between target and ligand, obtained from inhibition or displacement. The term melting point denotes the temperature of the solid-liquid transition.

One data set addresses T1, human H3 receptor (Homo sapiens, UniProt Q9Y5N1).
T1 construct: expressed in transfected cells
In words: Human H3 radioligand binding ([3H]-N-alpha-methylhistamine, SPA). To be noted: Table A; human H3 binding; read-out: Human Ki. An outline of the steps:
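SPA competition binding on membranes from CHO cells stably expressing human H3 receptor (10 μg protein/well) with ~1 nM [3H]-N-alpha-methylhistamine and compound at 0.01 nM-30 μM. Incubation 4 h at room temperature in 50 mM Tris-HCl pH 7.4, 5 mM MgCl2, 0.1% BSA; non-specific binding defined with 10 μM clobenpropit.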

In data set [1] the target is T2, rat histamine H3 receptor (Rattus norvegicus, UniProt Q9QYN8).
T2 construct: encoding the entire 445-amino-acid rat histamine H3 receptor; expressed in transfected cells; membrane preparation
In words: Rat H3 radioligand binding ([3H]-N-alpha-methylhistamine, SPA). The conditions noted are these: Table A; rat H3 binding; read-out: Rat Ki. An outline of the steps: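 Membranes from CHO-A3 cells stably expressing full-length rat H3 receptor (10 μg protein/well) incubated 4 h at room temperature, protected from light, with ~1 nM [3H]-N-alpha-methylhistamine and compound (0.01 nM-30 μM) in 50 mM Tris HCl pH 7.4, 5 mM MgCl2, 0.1% BSA. Binding read by SPA; 10 μM clobenpropit defined non-specific binding.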

T2 sequence (Q9QYN8 whole entry): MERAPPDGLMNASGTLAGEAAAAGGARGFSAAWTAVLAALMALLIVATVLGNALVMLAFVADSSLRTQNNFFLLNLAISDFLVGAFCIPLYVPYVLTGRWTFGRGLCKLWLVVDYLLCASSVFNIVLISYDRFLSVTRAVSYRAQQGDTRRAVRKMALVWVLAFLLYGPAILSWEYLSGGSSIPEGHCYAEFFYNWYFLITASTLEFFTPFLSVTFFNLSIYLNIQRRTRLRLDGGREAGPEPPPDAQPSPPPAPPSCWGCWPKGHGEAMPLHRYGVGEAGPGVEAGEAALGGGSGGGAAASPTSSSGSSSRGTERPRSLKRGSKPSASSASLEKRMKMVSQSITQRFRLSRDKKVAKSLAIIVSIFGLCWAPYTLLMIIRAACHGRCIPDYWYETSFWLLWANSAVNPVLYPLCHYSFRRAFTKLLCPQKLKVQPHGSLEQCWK
T1 sequence (Q9Y5N1 whole entry): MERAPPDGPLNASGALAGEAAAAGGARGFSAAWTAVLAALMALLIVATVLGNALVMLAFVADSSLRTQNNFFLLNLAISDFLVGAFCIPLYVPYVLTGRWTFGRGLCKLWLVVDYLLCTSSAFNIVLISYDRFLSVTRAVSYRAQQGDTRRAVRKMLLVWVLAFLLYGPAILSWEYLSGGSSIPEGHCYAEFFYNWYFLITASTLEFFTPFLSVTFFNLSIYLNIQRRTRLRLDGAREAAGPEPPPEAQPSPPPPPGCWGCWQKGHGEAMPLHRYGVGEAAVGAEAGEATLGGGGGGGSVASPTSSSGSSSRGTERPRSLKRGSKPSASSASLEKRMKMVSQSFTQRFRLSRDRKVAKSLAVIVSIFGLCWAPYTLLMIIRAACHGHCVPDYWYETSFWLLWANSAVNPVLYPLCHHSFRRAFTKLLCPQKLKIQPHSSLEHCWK

The compound `CN(C)c1ncc(-c2ccc3c(c2)COC2(CCN(C4CCC4)CC2)O3)cn1` [Example 42] came in with a melting point of 204.8 to 205.8 °C. For the same compound, the Ki on human H3 receptor was less than 200 nM. Also, the inhibition constant Ki in data set [1] is less than 200 nM.
For the compound `O=C(Nc1nccs1)c1ccc(-c2ccc3c(c2)COC2(CCN(C4CCC4)CC2)O3)cc1` [Example 43], the melting point was in the range of 242 to 243 °C. Further, at human H3 receptor, the Ki was less than 200 nM. In data set [1], the Ki is less than 200 nM.
Regarding `OCc1ccc(-c2ccc3c(c2)COC2(CCN(C4CCC4)CC2)O3)cc1` [Example 44], the melting point was 131 to 134 °C. On human H3 receptor, the Ki is less than 200 nM. For the same compound, the Ki in data set [1] was less than 200 nM.
For the compound `c1ncc(-c2ccc3c(c2)COC2(CCN(C4CCC4)CC2)O3)cn1` [Example 45], the melting point lay in the range of 153 to 155 °C. Further, the inhibitory constant (Ki) on human H3 receptor was less than 200 nM. For the same compound, in data set [1], the inhibition constant Ki was less than 200 nM.
In the case of `CC(=O)Nc1ccc(-c2ccc3c(c2)COC2(CCN(C4CCC4)CC2)O3)cn1` [Example 46], the melting point fell in the range of 186 to 187 °C. Moreover, the Ki on human H3 receptor is less than 200 nM. For the same compound, the Ki in data set [1] is less than 200 nM.
The compound `Fc1ncccc1-c1ccc2c(c1)COC1(CCN(C3CCC3)CC1)O2` [Example 47] showed a melting point of 95 to 100 °C. For the same compound, on human H3 receptor, the inhibitory constant (Ki) was less than 200 nM. Moreover, in data set [1], the Ki was less than 200 nM.
`NS(=O)(=O)c1ccc(-c2ccc3c(c2)COC2(CCN(C4CCC4)CC2)O3)cc1` [Example 48]: the melting point lay within 195 to 200 °C. For the same compound, the Ki on human H3 receptor was less than 200 nM. In addition, the Ki in data set [1] was less than 200 nM.
Compound `O=C(NCCO)c1ccc(-c2ccc3c(c2)COC2(CCN(C4CCC4)CC2)O3)cc1` [Example 50] gave a melting point of 185 to 187 °C. The Ki at human H3 receptor was less than 200 nM. For the same compound, the inhibition constant Ki in data set [1] is less than 200 nM.
`O=C(c1cccc(-c2ccc3c(c2)COC2(CCN(C4CCC4)CC2)O3)c1)N1CCCC1` [Example 57] came in with a melting point of 221.7 °C. Moreover, the Ki on human H3 receptor is less than 200 nM. Further, the inhibition constant (Ki) in data set [1] was less than 200 nM.
The compound `NC(=O)c1cccc(-c2ccc3c(c2)COC2(CCN(C4CCC4)CC2)O3)c1` [Example 58] registered a melting point of 109.3 °C. Besides, the inhibition constant (Ki) on human H3 receptor was less than 200 nM. Also, in data set [1], the inhibitory constant (Ki) is less than 200 nM.
On to `CCOC(=O)c1cncc(-c2ccc3c(c2)COC2(CCN(C4CCC4)CC2)O3)c1` [Example 59], for which the melting point amounted to 239.2 °C. For the same compound, the inhibition constant (Ki) on human H3 receptor was less than 200 nM. Also, the Ki in data set [1] was less than 200 nM.
Turning to `c1nc(-c2ccc3c(c2)COC2(CCN(C4CCC4)CC2)O3)cs1` [Example 66], the melting point lay within 165 to 166 °C. On human H3 receptor, the Ki was less than 200 nM. Also, the inhibitory constant (Ki) in data set [1] is less than 200 nM.
Compound `O=C(NC[C@H]1CCCO1)c1ccc(-c2ccc3c(c2)COC2(CCN(C4CCC4)CC2)O3)cc1` [Example 67] displayed a melting point of 184 to 186 °C. In addition, the Ki on human H3 receptor is less than 200 nM. The Ki in data set [1] was less than 200 nM.
Compound `O=C(c1ccc(-c2ccc3c(c2)COC2(CCN(C4CCC4)CC2)O3)cc1)N1CC[C@H](F)C1` [Example 68] came in with a melting point of 184 to 186 °C. In addition, the inhibitory constant (Ki) at human H3 receptor was less than 200 nM. Also, in data set [1], the Ki was less than 200 nM.
Turning to `O=C(c1ccc(-c2ccc3c(c2)COC2(CCN(C4CCC4)CC2)O3)cc1)N1CC[C@@H](F)C1` [Example 69], the melting point was 185 to 186 °C. Moreover, on human H3 receptor, the Ki is less than 200 nM. Moreover, the Ki in data set [1] was less than 200 nM.
Compound `c1cnc(-c2ccc3c(c2)COC2(CCN(C4CCC4)CC2)O3)cn1` [Example 71] returned a melting point of 114 to 115 °C. At human H3 receptor, the inhibition constant Ki is less than 200 nM. The Ki in data set [1] is less than 200 nM.
Turning to `Cc1nc(-c2ccc3c(c2)COC2(CCN(C4CCC4)CC2)O3)cs1` [Example 74], the melting point lay within 151 to 153 °C. Further, the Ki at human H3 receptor was less than 200 nM. In addition, the Ki in data set [1] was less than 200 nM.
The compound `Cc1noc(C)c1-c1ccc2c(c1)COC1(CCN(C3CCC3)CC1)O2` [Example 76] showed a melting point of 123 to 127 °C. The Ki at human H3 receptor was less than 200 nM. Moreover, in data set [1], the Ki is less than 200 nM.
